{
  "source": "patent US20240408068A1",
  "about": "“Helicase Primase Inhibitors For Treating Cancer In A Combination Therapy With Oncolytic Viruses” (priority 2018, published 2024)",
  "system": "HSV-1",
  "experiment": "Viral DNA (HSV-1 copies) within treated tumor samples, first oHSV experiment",
  "assay_type": "in vivo, Balbc/j mice",
  "conditions": "for Total HSV-1 [copy/g tumor] mean: day 19",
  "experimental": "At the end of efficacy monitoring period (on day 19 post-tumor cell inoculation, around ˜3-4 h after the last treatment with test compound), all surviving mice were anesthetized using isoflurane gas anesthesia (4% induction and 2% maintain) prior to blood sampling on heparin-coated tubes by retro-orbital puncture, for plasma collection. In addition, tumors were collected, snap-frozen, and stored at −80° C. until further analysis.\nThe tumors were collected as described above, snap frozen in liquid nitrogen and DNA of ˜25 mg tumor samples was extracted with a QIAamp DNA Mini Kit (Cat. No. 51326) on a QIAcube machine. 10 μL of the 200 μL HSV DNA containing elution volumue was quantified with an Argene HSV R-gene kit (Ref.: 69-004B) and normalized to 1 gram tumor sample (see below).",
  "data": [
    {"smiles": "Cc1nc(N(C)C(=O)Cc2ccc(-c3cc(F)ccc3F)cc2)sc1[S@@](C)(=N)=O", "note": "[Example 7(−), (−)-(S)-2-(2′,5′-Difluoro-[1,1′-biphenyl]-4-yl)-N-methyl-N-(4-methyl-5-(S-methylsulfonimidoyl)thiazol-2-yl)acetamide]", "values": [
      {"measurement": "Total HSV-1 [copy/g tumor] mean", "setting": "Group 5: HSV-1 5 × 10^6 pfu + 10 mg/kg 72 pi", "value": 154493, "unit": "copy/g tumor"},
      {"measurement": "Total HSV-1 [copy/g tumor] mean", "setting": "Group 6: HSV-1 5 × 10^6 pfu + 10 mg/kg 72 pi + αPD1 + αCTLA-4", "value": 51301, "unit": "copy/g tumor"},
      {"measurement": "Total HSV-1 [copy/g tumor] mean", "setting": "Group 7: HSV-1 1 × 10^8 pfu + 10 mg/kg 72 hpi", "value": 74312, "unit": "copy/g tumor"},
      {"measurement": "Total HSV-1 [copy/g tumor] mean", "setting": "Group 8: HSV 5 × 10^6 pfu + 10 mg/kg 2 h pi", "value": 10600, "unit": "copy/g tumor"},
      {"measurement": "reduction in viral DNA load", "setting": "treatment 2 hours post infection compared to 72 hours delayed treatment", "value": "highest reduction in viral DNA load"}
    ]}
  ]
}
